Laboratory results reported in US20110045101A1, “FUNGICIDAL SUBSTITUTED AZOLES” (E.I. Du Pont De Nemours and Company, priority 2009, published 2011).
Marks after values point to notes of the source that are not given here.

What was measured:
Format in all cases: in vivo
Conditions in all cases: 100 = 100% disease control
[1] = tested on: Puccinia recondita f. sp. tritici; test: Test H: wheat leaf rust, test suspension sprayed after inoculation of wheat seedlings, visual disease rating
How it was run: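 Wheat seedlings inoculated with P. recondita spores, held 24 h saturated at 20 °C, then 2 days in growth chamber at 20 °C; compound suspension (acetone/water with Trem 014) sprayed to run-off afterwards. Rated visually; 200 ppm (≈500 g/ha) unless marked *, which denotes 40 ppm.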

[2] = tested on: Puccinia recondita f. sp. tritici; test: Test I: wheat leaf rust on wheat seedlings, sprayed the day before inoculation, visual disease rating
How it was run: (§1)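 200 ppm run-off spray (500 g/ha equivalent); * = 40 ppm. Vehicle: acetone/water 50/50, 250 ppm Trem® 014.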

[3] = tested on: Erysiphe graminis f. sp. tritici; test: Test J: wheat powdery mildew on wheat seedlings, sprayed the day before inoculation, visual disease rating
How it was run: as §1

Botrytis cinerea = test: Test C: tomato Botrytis on tomato seedlings, sprayed the day before inoculation, visual disease rating
How it was run: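 Tomato seedlings were sprayed until run-off with test suspensions in acetone/water (50/50) carrying 250 ppm polyhydric alcohol ester surfactant. Standard dose was 200 ppm, with 40 ppm for marked entries.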

Septoria nodorum = test: Test F: wheat glume blotch on wheat seedlings, sprayed the day before inoculation, visual disease rating
How it was run: as §1

Septoria tritici = test: Test G: wheat leaf blotch on wheat seedlings, sprayed the day before inoculation, visual disease rating
How it was run: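 Seedlings receive a protective spray of test suspension in acetone/water carrying 250 ppm surfactant, mostly at 200 ppm and at 40 ppm where marked. They are inoculated the next day, kept saturated at 24° C for 48 h, then held at 20° C for 19 days before visual scoring.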

Alternaria solani = test: Test D: tomato early blight, sprayed the day before inoculation, visual disease rating
How it was run: as §1

[4] = 200 ppm, 0 = no control relative to controls
[5] = 40 ppm (marked *), 0 = no control

| Structure (SMILES) | Test H disease control rating [1, 4] [%] | Test I disease control rating [2, 4] [%] | Test J disease control rating [3, 4] [%] | Test C disease control rating (Botrytis cinerea; [4]) [%] | Test F disease control rating (Septoria nodorum; [4]) [%] | Test G disease control rating (Septoria tritici; [4]) [%] | Test D disease control rating (Alternaria solani; [4]) [%] | further results |
| --- | --- | --- | --- | --- | --- | --- | --- | --- |
| Cc1nc(Cl)n(-c2ccc(Cl)c(F)c2)c1-c1ccnc(F)c1 [compound 323] | 70 | 100 | 99 | 100 | 0 | 100 | 99 |  |
| Cc1nc(Cl)n(-c2ccc(Cl)nc2)c1-c1c(F)ccc(C#N)c1F [compound 716] | 100 | 99 | 99 | 100 | 95 | 100 | 100 |  |
| Cc1ccc(-n2c(C)nc(C)c2-c2c(F)ccc(F)c2Cl)cc1 [compound 493] |  |  |  |  |  |  |  | Test H disease control rating ([1]; 40 ppm (marked *)): 0* %; Test I disease control rating ([2]; 40 ppm (marked *)): 97* %; Test J disease control rating ([3]; 40 ppm (marked *)): 99* %; Test C disease control rating (Botrytis cinerea; 40 ppm (marked *)): 96* %; Test F disease control rating (Septoria nodorum; 40 ppm (marked *)): 0* %; Test G disease control rating (Septoria tritici; 40 ppm (marked *)): 93* %; Test D disease control rating (Alternaria solani; 40 ppm (marked *)): 99* % |
| Fc1cccc(F)c1-n1c(-c2ccc(Cl)cc2)cnc1Cl [compound 341] |  |  |  |  |  |  |  | Test H disease control rating [1, 5]: 9* %; Test I disease control rating [2, 5]: 0* %; Test J disease control rating [3, 5]: 0* %; Test C disease control rating (Botrytis cinerea; [5]): 91* %; Test F disease control rating (Septoria nodorum; [5]): 0* %; Test G disease control rating (Septoria tritici; [5]): 0* %; Test D disease control rating (Alternaria solani; [5]): 24* % |
| COc1cc(F)c(-c2c(C)nc(Br)n2-c2ccc(OC)nc2)c(F)c1 [compound 736] | 99 | 100 | 100 | 99 | 97 | 100 | 100 |  |
| COc1cc(F)c(-c2c(Cl)nc(Cl)n2-c2ccccc2)c(F)c1Cl [compound 428] | 0 | 100 | 100 | 100 | 0 | 99 | 100 |  |
| COc1cc(F)c(-c2c(Cl)nc(Cl)n2-c2ccc(Cl)nc2OC)c(F)c1 [compound 514] | 0 | 93 | 99 | 99 | 73 | 100 | 99 |  |
| Cc1ncn(-c2ccc(Cl)c(F)c2)c1-c1ccc(Br)cn1 [compound 347] | 26 | 9 | 0 | 93 | 0 | 70 | 0 |  |
| N#Cc1ccc(F)c(-c2c(Cl)nc(Cl)n2-c2ccc(Cl)cc2)c1F [compound 407] | 0 | 97 | 98 | 100 | 92 | 96 | 0 |  |
| Fc1cc(F)c(-c2c(Cl)ncn2-c2cccc(OC(F)(F)F)c2)c(F)c1 [compound 586] | 0 | 0 | 21 | 0 | 0 | 3 | 0 |  |
| Fc1cc(-n2c(Cl)nc(Cl)c2-c2ccc(Br)cn2)ccc1Cl [compound 487] | 0 | 78 | 0 | 96 | 0 | 88 | 0 |  |
| COc1cc(F)c(-c2c(Cl)nc(Cl)n2-c2cncc(F)c2)c(F)c1 [compound 728] | 100 | 100 | 100 | 100 | 100 | 99 | 100 |  |
| Cc1nc(Cl)n(-c2ccc(Cl)cn2)c1-c1c(F)cccc1F [compound 321] | 83 | 100 | 100 | 100 | 100 | 100 | 100 |  |
| Cc1nc(Cl)c(-c2c(F)cc(F)cc2F)n1-c1ccc(OC(F)(F)F)cc1 [compound 612] | 0 | 8 | 100 | 99 | 60 | 96 | 100 |  |
| COc1ccc(F)c(-c2c(Cl)ncn2Cc2ccc(Cl)cc2)c1F [compound 270] |  |  |  |  |  |  |  | Test H disease control rating ([1]; 200 ppm, 0 = no control): 0%; Test I disease control rating ([2]; 200 ppm, 0 = no control): 99%; Test J disease control rating ([3]; 200 ppm, 0 = no control): 96%; Test C disease control rating (Botrytis cinerea; 200 ppm, 0 = no control): 100%; Test F disease control rating (Septoria nodorum; 200 ppm, 0 = no control): 98%; Test G disease control rating (Septoria tritici; 200 ppm, 0 = no control): 86%; Test D disease control rating (Alternaria solani; 200 ppm, 0 = no control): 100% |
| COc1ccc(Cl)c(-c2c(Cl)nc(Br)n2-c2ccc(Cl)cc2)c1F [compound 512] | 40 | 79 | 99 | 97 | 0 | 98 | 98 |  |
